Assay results from patent publication US20160146788A1, “METHOD FOR SCREENING DRUGS FOR TREATING/PREVENTING MYELODYSPLASTIC SYNDROME, ETC” (KYOTO UNIVERSITY, priority 2013, published 2016).

Tested on: hematopoietic progenitor cells induced from MDS-iPS cells
Test: Colony formation assay of hematopoietic progenitor cells with p38 inhibitor added
Format: cell-based, human
Conditions: 10 μM SB203580 in methylcellulose medium, HPC from MDS-iPSC and Normal iPSC derived from KM5 and KM16, colonies counted after 14 or 15 days, FIG. 19
Description: Using a 35 mm culture dish, 2500 cells from the cells of CD43^+CD34^+CD38^− fraction induced to differentiate from iPS cells (abnormal MDS-iPSCs (NonT-iPS) and Normal iPSCs (T-iPS)) and extracted by flow cytometer were seeded in 2 ml of a methylcellulose medium containing SCF, G-CSF, GM-CSF, IL-3, IL-6 and EPO (MethoCult H4435) according to the method of Example 2. After 15 days, the number of the colonies was counted under a microscope. After Cytospin, Wright's staining was performed, and the colony type was identified by microscopic observation.
To study whether the decreased colony-forming ability of hematopoietic progenitor cells induced from MDS-iPS cells is recovered by the effect of p38 inhibitor, colony formation assay was performed by a method similar to Example 3 except that a p38 inhibitor was added. In brief, using a 35 mm culture dish, 2500 cells from the cells of CD43+CD34+CD38-fraction induced to differentiate from iPS cells (MDS-iPSCs (NonT-iPS)) and Normal iPSCs (T-iPS)) and extracted by flow cytometer were seeded in 1.1 ml of a methylcellulose medium containing SCF, G-CSF, GM-CSF, IL-3, IL-6, EPO and 10 μM SB203580 (p38 inhibitor) according to the method of Example 2. After 14 or 15 days, the number of colonies was counted under a microscope. Furthermore, after Cytospin, Wright's staining was performed, and the colony type was identified by microscopic observation.

SMILES: C[S+]([O-])c1ccc(-c2nc(-c3ccncc3)c(-c3ccc(F)cc3)[nH]2)cc1 (centres unmarked) [SB203580]
- colony-forming ability (number of colonies): colony-forming ability-improving effect
- colony-forming ability (number of colonies) (listed as p38 inhibitor): improving effect on the colony-forming ability
